Measurements as given in ChEMBL document CHEMBL1133385, “The de novo design and synthesis of cyclic urea inhibitors of factor Xa: optimization of the S4 ligand” (Bioorg Med Chem Lett, 2000).
pKi: −log10 of the molar value.

Legend:
Prothrombin = Prothrombin (Homo sapiens, UniProt P00734); assay: Inhibitory activity against thrombin
Serine protease 1 = Serine protease 1 (Homo sapiens, UniProt P07477); assay: Inhibitory activity against trypsin
Coagulation factor X = Coagulation factor X (Homo sapiens, UniProt P00742); assay: Inhibition of coagulation factor Xa
Coagulation factor X, sequence (P00742 41-179 limits assumed): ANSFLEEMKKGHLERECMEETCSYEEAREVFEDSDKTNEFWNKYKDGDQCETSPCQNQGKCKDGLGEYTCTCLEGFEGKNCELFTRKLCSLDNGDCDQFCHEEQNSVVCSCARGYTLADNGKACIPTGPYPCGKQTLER
Coagulation factor X, sequence (P00742 235-488 limits assumed): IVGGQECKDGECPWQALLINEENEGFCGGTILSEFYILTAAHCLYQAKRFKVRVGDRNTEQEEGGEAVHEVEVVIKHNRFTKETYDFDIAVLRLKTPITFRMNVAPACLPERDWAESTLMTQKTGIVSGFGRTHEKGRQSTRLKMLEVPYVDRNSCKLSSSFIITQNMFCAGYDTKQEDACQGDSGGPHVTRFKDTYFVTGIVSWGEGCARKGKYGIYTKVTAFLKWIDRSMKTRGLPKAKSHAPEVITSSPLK

[1] = Maximum plasma concentration was determined in rabbit at a dose of 5 mg/kg/h administered i.v.; assay type: ADME, organism-based, Oryctolagus cuniculus; parameters: dose 5 mg/kg/h, route intravenous; settings: iv
[2] = The compound was evaluated for volume of distribution in rabbit at a dose of 5 mg/kg/h administered i.v.; assay type: ADME, organism-based, Oryctolagus cuniculus; parameters: route intravenous; settings: in vivo, iv
[3] = Half life period was determined; settings: rabbit
[4] = Plasma clearance was determined in rabbit at a dose of 5 mg/kg/h administered i.v.; assay type: ADME, organism-based, Oryctolagus cuniculus; parameters: route intravenous; settings: iv

Serine protease 1, sequence (P07477 whole entry): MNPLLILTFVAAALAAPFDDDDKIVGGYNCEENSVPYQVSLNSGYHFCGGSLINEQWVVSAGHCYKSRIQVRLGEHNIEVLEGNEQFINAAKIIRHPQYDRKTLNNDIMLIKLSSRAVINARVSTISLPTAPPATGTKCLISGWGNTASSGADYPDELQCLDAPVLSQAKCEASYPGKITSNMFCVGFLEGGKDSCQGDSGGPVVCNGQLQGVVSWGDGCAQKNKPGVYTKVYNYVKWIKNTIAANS

Structure (SMILES)	pKi (Prothrombin)	pKi (Serine protease 1)	pKi (Coagulation factor X)	Cmax [1] [µM]	Vd [2] [L/kg]	half-life [3] [min]	clearance [4] [mL/min/kg]
N=C(N)c1cccc(N2CCCCN(C3CCN(C(=O)c4ccccc4)CC3)C2=O)c1	< 4.68						
N=C(N)c1cccc(N2CCCCN(C3CCN(S(=O)(=O)c4ccccc4N)CC3)C2=O)c1	5.62	6.89	7.47				
N=C(N)c1cccc(N2CCCCN(C3CCN(C(=O)Cc4ccccc4)CC3)C2=O)c1	4.93		6.05				
N=C(N)c1cccc(N2CCCCN(C3CCN(CCc4ccccc4)CC3)C2=O)c1	5.44	6.00	6.66				
N=C(N)c1cccc(N2CCCCN(C3CCN(Cc4ccccn4)CC3)C2=O)c1	5.59	6.92	7.92				
N=C(N)c1cccc(N2CCCCN(C3CCN(Cc4ccncc4)CC3)C2=O)c1	5.17		6.70				
N=C(N)c1cccc(N2CCCCN(C3CCN(S(=O)(=O)c4ccc(N)cc4)CC3)C2=O)c1	5.20	6.72	7.15				
N=C(N)c1cccc(N2CCCCN(C3CCN(Cc4cccnc4)CC3)C2=O)c1	5.28		6.17				

These reach a higher pKi (Prothrombin). Values come first.

pKi (Prothrombin)	pKi (Serine protease 1)	pKi (Coagulation factor X)	Cmax [1] [µM]	Vd [2] [L/kg]	half-life [3] [min]	clearance [4] [mL/min/kg]	Structure (SMILES)
5.66		6.70					N=C(N)c1cccc(N2CCCCN(C3CCN(S(=O)(=O)c4cccc(N)c4)CC3)C2=O)c1
5.80	7.22	7.62					N=C(N)c1cccc(N2CCCCN(C3CCN(S(=O)(=O)c4ccccc4)CC3)C2=O)c1
5.82	7.28	7.92	36	1.1	66	11.3	Cl.N=C(N)c1cccc(N2CCCCN(C3CCN(S(=O)(=O)c4cccs4)CC3)C2=O)c1
5.85	6.77	7.10					N=C(N)c1cccc(N2CCCCN(C3CCN(Cc4cccs4)CC3)C2=O)c1
6.30	7.24	8.00	2.4	0.34	1.8	132	N=C(N)c1cccc(N2CCCCN(C3CCN(S(=O)(=O)Cc4ccccn4)CC3)C2=O)c1.O=C(O)C(F)(F)F.O=C(O)C(F)(F)F
6.30	7.10	8.00	4.8	0.23	2.4	68.3	N=C(N)c1cccc(N2CCCCN(C3CCN(S(=O)(=O)Cc4ccccc4)CC3)C2=O)c1.O=C(O)C(F)(F)F
